Measured values reported in US7208528B1, “Polyamine analogues as therapeutic and diagnostic agents” (MediQuest Therapeutics, Inc., priority 1997, dated 2007).

Columns and labels:
[1] = tested on: MDA-MB-231 cells; test: Growth assay of MDA-MB-231 cells with ODC inhibitor (DFMO) and 1 μM spermidine
Procedure: The estrogen insensitive human breast carcinoma MDA-MB-231 cell line as the primary cell line in the screen. […] In order to optimize the screen for polyamine transport inhibition, 1.0 μM spermidine was added to media to reverse the effects of ODC inhibitors. The assay was also performed over seven days because this allows for the greatest dynamic range in cell growth due to the mechanism of ODC inhibitors. Cells need to divide several times before the intracellular level of polyamines begin to decrease to growth inhibitory levels.
Compounds were tested for their ability to inhibit cell growth in the presence of 1 μM spermidine and 230 μM ODC inhibitor for the MDA-MB-231 cells or 1 mM ODC inhibitor for the PC3 cells.
In our six day growth assays, 1202 was tested at increasing concentrations with the optimal concentration of DFMO.

[2] = tested on: T-cell acute lymphoblastic leukemias (ALL), glioblastomas, prostate, and colon cell lines; test: In vitro test in combination with ODC inhibitors against several human cancer cell lines; type: cell-based
Procedure: DACS was tested in vitro in combination with ODC inhibitors against several human cancer cell lines. These include T-cell acute lymphoblastic leukemias (ALL), glioblastomas, prostate, and colon cell lines.

[3] = tested on: polyamine transporter (PATr); test: Polyamine transport (PAT) inhibition assay, 3H-spermidine uptake into MDA-MB-231 cells; type: cell-based, human
Procedure: (§1) The radiometric assay uses radiolabeled polyamines such as putrescine, spermidine or spermine, but, due to the low signal, large numbers of adherent or non-adherent cells are required. Additional care is required with spermine due to its nonspecific adsorption to cells and plastics. Cells are mixed with the test compounds and the radiolabeled polyamine to initiate the assay. The cells are incubated for 1–60 minutes, depending on cell type. The assay is terminated by removal of the medium and cooling the plates to 4° C. The cells are then washed with cold medium three times, dissolved in 0.1% sodium dodecyl sulfate and the radioactivity in solution is then determined by scintillation counting. This assay is difficult to scale up to a high throughput procedure due to the low signal from the radiolabel and the handling requirements inherent in procedures with radioactivity.
Therefore, the growth assay and a kinetic transport assay have been used to validate transport inhibition.
The polyamine analogues and derivatives of the invention may be evaluated for their ability to inhibit the uptake of spermidine into MDA cells in culture. Joro spider toxin JSTx-3 is available from Calbiochem; 1-Naphthylacetylspermine is available from RBI. Deoxyspergualin was a generous gift from Paul Gladstone.
300 nM 1202 was the maximum concentration tested in initial rate transport assays.

[4] = molecular target: spermidine/spermine acetyltransferase (SSAT) (Homo sapiens, UniProt P21673); test: Spermidine/spermine acetyltransferase enzymatic activity, 14C-acetyl CoA incorporation; type: biochemical; settings: 1 mM spermidine, 1 mM 14C-acetyl CoA, pH 7.8
Procedure: A study was conducted to determine whether the compositions of the present invention, designed as PAT inhibitors, had other activities on the PA system. Specifically, the ability of DACS to inhibit an enzyme involved in PA recycling was evaluated. The method used was as described in Casero, R. A. et al., Biochem. J. 270:615–620 (1990) hereby incorporated by reference in its entirety. This assay measures the incorporation of ^14C-labeled acetyl CoA into spermidine to form acetylspermidine. Varying concentrations of DACS were added to a reaction mixture containing HEPES buffer, pH 7.8, 1 mM spermidine, and 1 mM ^14C-Acetyl CoA. The product is isolated by binding to phosphocellulose filter paper and the extent of reaction is determined by scintillation counting.

[5] = tested on: polyamine transporter (PATr); test: Radiometric PAT assay in A172 glioblastoma cells; type: cell-based; settings: A172 cell line
Procedure: as §1

[6] = Solubility in water; type: physicochemical; settings: pH 7.0
[7] = tested on: MDA breast carcinoma cells; test: Rescue from DFMO-induced growth inhibition of MDA cells without added polyamines, six day growth assay; type: cell-based, human; settings: Homo sapiens, Breast carcinoma cell, 144 h; 230 μM, no additional polyamines, six day growth assay; read-out: cell number, % of control
Procedure: An additional series of spermine amides were evaluated to extend the structure-activity relationship around this polyamine transport target.
Growth assays were done over a six day period in order to allow for polyamine depletion within cells. When synthesis of polyamines is inhibited, cells compensate by increasing transport of extracellular polyamines into the cell. Over the time course of the assay, polyamines in the culture media may be depleted resulting in growth inhibition.

[8] = tested on: polyamine transport system of MDA cells; test: SPD transport inhibition and recovery after washing in MDA cells; type: cell-based, human; settings: 3 day incubation
[9] = tested on: mutant L1210 leukemia cells deficient in polyamine uptake; settings: cited from earlier work
[10] = tested on: MDA cells; test: Long term (three week) growth of MDA cells with DFMO, 1202 or both; type: cell-based, human; settings: DFMO 500 μM or 1202 60 μM alone, three weeks
[11] = tested on: polyamine transport system of MDA cells; test: Transport Km and Vmax with 3H-SPD after long term treatment of MDA cells; type: cell-based, human; settings: DFMO in the presence of SPD
Description: We wished to determine the effects of long term treatment with DFMO, 1202, or both, on polyamine transport characteristics.

[12] = tested on: wild-type L1210 cancer cells; settings: cited from earlier work
[13] = tested on: MDA cells; test: Intracellular polyamine levels in MDA cells after long term treatment; type: cell-based, human; settings: DFMO alone, one and three weeks
Description: We examined the intracellular polyamine levels in MDA cells after 6 and 20 days of growth in the presence of polyamine synthesis inhibitor or transport inhibitor, or both.

[14] = mice inoculated with mutant L1210 cells

spermidine/spermine acetyltransferase (SSAT), sequence (P21673 whole entry, species assumed): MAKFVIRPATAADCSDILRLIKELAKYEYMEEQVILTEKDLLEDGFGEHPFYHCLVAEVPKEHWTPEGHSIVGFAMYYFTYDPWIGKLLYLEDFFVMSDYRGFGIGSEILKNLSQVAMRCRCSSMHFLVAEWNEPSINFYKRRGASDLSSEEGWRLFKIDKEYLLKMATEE

CN(C)c1cccc2c(S(=O)(=O)NCCCCCC(=O)NCCCNCCCCNCCCN)cccc12 [Compound 4, N^1-[(N^6-dansyl)-6-aminocaproyl]spermine]
concentration at which compound alone becomes growth inhibitory ([1]; alone, without ODC inhibitor): 300 µM | IC50 ([1]; read-out: IC50 for growth in combination with ODC inhibitor (DFMO), 230 μM DFMO, 1 μM spermidine): 600 nM | reduction of cell growth ([1]; with ODC inhibitor in the presence of polyamines, day 3): 69% | effect against tumor cell lines in vitro [2]: effective | affinity higher than the compound reported by Felschow et al. [3]: 100 times | increase in binding to the PATr by six carbon linker ([3]; versus compound without linker): 10 fold | inhibition of SSAT enzymatic activity [4]: inhibited

CN(C)CCCN1c2ccccc2CCc2ccccc21 [Compound 165, imipramine, reference compound]
inhibition of the PAT assay [5]: inhibited | type of PAT inhibition ([3]; A172 and MDA cells): non-competitive | inhibition of the PAT assay ([3]; MDA cell line): inhibited

NCCCCC(N)C(=O)NCCCNCCCCNCCCN [Compound 1202, N^1-Spermine-L-lysinyl amide]
solubility [6]: ≥ 100 mM

NCCC[C@](N)(C(=O)O)C(F)F [DFMO, α-difluoromethylornithine]
activity at 230 µM [7]: 35% | up-regulation of SPD transport [8]: 3 fold | survival ([9]; PAT-deficient L1210 cells, DFMO): > 60 days | increase in median survival time [9, 14]: 87% | mice cured [9, 14]: 13 of 40 | effect on growth of single agent ([1]; alone, in the presence of 1 μM SPD): minimal | growth rate with single compound [10]: little difference in growth rate | change in Vmax [11]: no change | increase in median survival time ([12]; mice inoculated with the parental cell line): 22% | time to death ([12]; wild-type L1210, treated with DFMO): 12 days | decrease in PUT levels [13]: 69–86%
